Experiments:
Sprague Dawley rats [1] = assay: Hargreaves test of thermal nociception (paw withdrawal latency); format: in vivo, rat; details: subcutaneous 0.8 ml of 0.1% or 0.2%, six animals each
Text: Sprague Dawley rats (300-350 grams) were used to assess the efficacy of formulations of ropivacaine generated as described above. The Hargreaves test of thermal nociception evaluates the level of sensory anesthesia of the plantar surface of the paw and was used to assess pain sensation here. Animals were placed in individual Plexiglas testing chambers in a modified Hargreaves box. Hargreaves et al., 1988, which is hereby incorporated by reference. A very low power idle intensity beam was used to initially target the plantar surface of the hind paw. Once appropriately placed, the beam was switched to a higher power active intensity (approximately 50% of maximum intensity). This causes radiant heat stimulation of the plantar hind paw and allows for a measure of the latency of the rat's paw withdrawal threshold.
Before each experiment, baseline nociception testing was performed on the animals. In all experiments, the left paws were used as controls and the right paws were utilized in the treatment condition. Rats were anesthetized using the general anesthetic isoflurane, awaked after a designated time, and the paws were tested after their returned to baseline wakefulness (approximately 5-10 minutes). Each hind paw was tested at 5 minute intervals for 40 minutes and at 10-minute intervals for 120 minutes. […]

Sprague Dawley rats [2] = assay: Acute toxicity after intravenous injection (cardiopulmonary arrest as evidence of toxicity); format: in vivo, rat; details: 1.2 mg intravenous
Description: Conjugated nanoparticles so prepared may be injected intravenously into a subject. […] The efficacy as a local anesthetic when concentrated with an external magnet was assessed in the following experiment.
Specifically, acute toxicity studies of unconjugated magnetic nanoparticles, assay of plasma concentration of ropivacaine, and measurement of tissue concentration of ropivacaine at the ankle were performed.
Acute toxicity studies of unconjugated magnetic nanoparticles were conducted in 10 animals. Cardiopulmonary arrest was taken as evidence of toxicity.
(§1) Each group included 3 animals. A volume of 0.3 ml of blood was drawn before injection, and at 15, 30, 60, 120, 180, 240 and 300 minutes after the injections. […] The animals in groups Bplasma and Cplasma had 14 mg of ropivacaine complexed with MNPs. In group Cplasma, the magnet assembly used in Example 2 was placed around the right ankle before injection and removed after 30 minutes.

[3] = Plasma concentration / pharmacokinetics of ropivacaine after intravenous administration; format: in vivo, rat
Description: For the assessment of plasma concentration of ropivacaine, the following groups were studied:
as §1
After intravenous administration, the plasma concentration of ropivacaine declined in an exponential manner as expected, in all three groups. Group Aplasma cannot be directly compared to the other two groups because the close in group Aplasma was 14 times lower. Between groups Bplasma and Cplasma, there were no differences in any parameter. Data are presented as mean (SD). Lambda-Z is defined as terminal elimination rate constant. AUC is the area under the concentration curve. Vd is the volume of distribution. Cl is clearance rate. N/A means not applicable. Listed probability values are established through t-tests between groups B and C.

[4] = rat, in vivo
Description: (§2) The experiments were done after placing the animals under isoflurane anesthesia and spontaneous ventilation. A volume of 2 milliliters of the injectate was given at 5-15° C. intravenously via a tail vein cannula over four to five minutes. A jugular catheter was inserted where necessary for blood withdrawals.
(§3) A separate set of two animals for each condition were used to assess ropivacaine concentration in the ankle.
(§4) In all groups, 0.3 ml of blood was withdrawn at baseline, at 15 minutes, and at 30 minutes for plasma ropivacaine determination. At 30 minutes, skin and subcutaneous tissue all around the right ankle were isolated for ropivacaine analysis. Analysis was performed by HPLC-MS-MS.
Again, data are presented as mean (SD)

[5] = Ropivacaine concentration in ankle tissue and plasma at 30 minutes (HPLC-MS-MS); details: Group A, ropivacaine only, 0.5 h
Description: as §2, §3, §4
Again, data are presented as mean (SD)

Structure (SMILES): CCCN1CCCC[C@H]1C(=O)Nc1c(C)cccc1C [Plain ropiv, ropivacaine]
- traditional nerve block (ankle block) (Sprague Dawley rats [1]): achieved
- lethality (Sprague Dawley rats [2]): lethal
- Cmax ([3]; Group A, 1 mg ropivacaine iv, mean): 863.3 ng/mL
- Cmax (dose normalized) ([3]; rat, in vivo, iv): 863.3 ng/mL/mg
- AUC (0-inf) ([3]; rat, in vivo, iv, 1 mg): 875 ng·h/mL
- Cl (clearance rate) ([3]; rat, in vivo, iv, 1 mg): 1462 mL/h
- Half life ([3]; rat, in vivo, iv, 1 mg): 97.8 min
- Tmax ([3]; rat, in vivo, iv, 1 mg): 15 min
- Vd (volume of distribution) ([3]; rat, in vivo, iv, 1 mg): 3180 mL
- factor by which absolute tissue drug concentration was higher than groups B and C [4]: 7-10
- Ratio of tissue to plasma concentration [5]: 3.12
